Test results taken from patent US20240360067A1, “DERIVATIVES OF ITACONIC ACID AND THEIR USE AS ANTI-INFLAMMATORY AGENTS” (Sitryx Therapeutics Limited, priority 2021, published 2024).

Legend:
[1] = Hepatocyte stability assay, human; assay type: in vitro ADME; conditions: 10 μM compound, 0.5×10^6 cells/mL, 60 min; for half-life at 10 μM: cryo-preserved hepatocytes, read-out: T½
Excerpt: (§1) Defrosted cryo-preserved hepatocytes (viability >70%) were used to determine the metabolic stability of a compound via calculation of intrinsic clearance (CIint; a measure of the removal of a compound from the liver in the absence of blood flow and cell binding). Clearance data are particularly important for in vitro work as they can be used in combination with in vivo data to predict the half-life and oral bioavailability of a drug.
(§2) The metabolic stability in hepatocytes assay involved a time-dependent reaction using both positive and negative controls. The cells must be pre-incubated at 37° C. then spiked with test compound (and positive control); samples taken at pre-determined time intervals were analysed to monitor the change in concentration of the initial drug compound over 60 minutes. A buffer incubation reaction (with no hepatocytes present) acted as a negative control and two cocktail solutions, containing compounds with known high and low clearance values (verapamil/7-hydroxycoumarin and propranolol/diltiazem), acted as positive controls. • 1. The assay was run with a cell concentration of 0.5×10^6 cells/mL in Leibovitz buffer. • 2. All compounds and controls were run in duplicate. • 3. Compound concentration was 10 μM. • 4. All compounds and controls were incubated with both cells and buffer to show turnover is due to hepatic metabolism. • 5. All wells on the incubation plate had 326.7 μL of either cells or buffer added. • 6. Prior to assay, cell and buffer-only incubation plates were preincubated for 10 mins at 37° C. • 7. The assay was initiated by adding compounds, 3.3 μL of 1 mM in 10% DMSO-90% Buffer; final DMSO concentration is 0.1%. • 8. Samples were taken at regular timepoints (0, 5, 10, 20, 40, 60 min) until 60 mins. • 9. Sample volume was 40 μL and added to 160 μL of crash solvent (acetonitrile with internal standard) and stored on ice. • 10. At the end of the assay, the crash plates were centrifuged at 3500 rpm for 20 mins at 4° C. • 11. 80 μL of clear supernatant was removed and mixed with 80 μL of deionised water before being analysed by LC-MS/MS.
(§3) Raw LC-MS/MS data were exported to, and analysed in, Microsoft Excel for determination of intrinsic clearance. The percentage remaining of a compound was monitored using the peak area of the initial concentration as 100%. Intrinsic clearance and half-life values were calculated using a graph of the natural log of percentage remaining versus the time of reaction in minutes.

IL-6 = assay: THP-1 AlphaLISA IL-6 cytokine assay (PMA-differentiated THP-1, LPS then nigericin); assay type: cell-based; conditions: differentiated THP-1 cells, 30 min pre-incubation, LPS 24 hr, nigericin 1 hour
Method: (§4) Measuring Inhibitory Effects on IL-1β, and IL-6 Cytokine Output from THP-1s
(§5) The cytokine inhibition profiles of compounds of formula (I) were determined in a differentiated THP-1 cell assay. All assays were performed in RPMI-1640 growth medium (Gibco), supplemented with 10% fetal bovine serum (FBS; Gibco), 1% penicillin-streptomycin and 1% sodium pyruvate unless specified otherwise. The IL-1β and IL-6 cytokine inhibition assays were each run in a background of differentiated THP-1 cells as described below. All reagents described were from Sigma-Aldrich unless specified otherwise. Compounds were prepared as 10 mM DMSO stocks.
(§6) THP-1 cells were expanded as a suspension up to 80% confluence in appropriate growth medium. Cells were harvested, suspended, and treated with an appropriate concentration of phorbol 12-myristate 13-acetate (PMA) over a 72 hr period (37° C./5% CO2).
(§7) Following 72 hrs of THP-1 cell incubation, cellular medium was removed and replaced with fresh growth media containing 1% of FBS. Working concentrations of compounds were prepared separately in 10% FBS treated growth medium and pre-incubated with the cells for 30 minutes (37° C./5% CO2). Following the 30 minute compound pre-incubation, THP-1s were treated with an appropriate concentration of LPS and the THP-1s were subsequently incubated for a 24 hr period (37° C./5% CO2). An appropriate final concentration of Nigericin was then dispensed into the THP-1 plates and incubated for 1 hour (37° C./5% CO2) before THP-1 supernatants were harvested and collected in separate polypropylene 96-well holding plates.
(§8) Reagents from each of the IL-1β and IL-6 commercial kits (Perkin Elmer) were prepared and run according to the manufacturer's instructions. Subsequently, fluorescence signal detection in a microplate reader was measured (EnVision® Multilabel Reader, Perkin Elmer).
(§9) Percentage inhibition was calculated per cytokine by normalizing the sample data to the high and low controls used within each plate (+/−LPS respectively).

IL-1β = assay: THP-1 AlphaLISA IL-1β cytokine assay (PMA-differentiated THP-1, LPS then nigericin); assay type: cell-based; conditions: 30 min pre-incubation, LPS 24 hr, nigericin 1 hour
Method: as §4, §5, §6, §7, §8, §9

[2] = Hepatocyte stability assay, mouse; assay type: in vitro ADME; conditions: 10 μM compound, 0.5×10^6 cells/mL, 60 min; for half-life at 10 μM: cryo-preserved hepatocytes, read-out: T½
Excerpt: as §1, §2, §3

NRF2 = NRF2 activation assay (DiscoverX PathHunter NRF2 translocation kit, U2OS cells); assay type: cell-based; conditions: for Emax: U2OS; for EC50: U2OS PathHunter cells, 6 hours
[3] = Homo sapiens, THP-1, differentiated THP-1 cells
[4] = Homo sapiens, +GSH, normalised to dimethyl fumarate high control
[5] = Homo sapiens, −GSH, normalised to dimethyl fumarate high control

CIint ([1]; Human hepatocytes) [μL min^−1 10^−6 cells]	half-life at 10 μM [1] [min]	IC50 (IL-6; Homo sapiens) [µM]	IC50 (IL-1β; [3]) [µM]	CIint ([2]; Mouse hepatocytes) [μL min^−1 10^−6 cells]	half-life at 10 μM [2] [min]	EC50 (NRF2; Homo sapiens, +GSH) [µM]	EC50 (NRF2; Homo sapiens, −GSH) [µM]	Compound	IC50 (IL-1β; differentiated THP-1 cells) [µM]	Emax (NRF2; [4]) [%]	Emax (NRF2; [5]) [%]	T½ ([1]; Human hepatocytes) [min]	T½ ([2]; Mouse hepatocytes) [min]	IC50 (IL-6) [µM]	EC50 (NRF2; −GSH) [µM]	NRF2 activation Emax, −GSH (NRF2; −GSH, normalised to dimethyl fumarate high control) [%]
126	12	8.1	6.5	516	4	48	38.8	C=C(CC(=O)NCCN1CCOCC1)C(=O)OC1(c2ccc(C(F)(F)F)cc2)CCC1 [Example 13, 1-(4-(trifluoromethyl)phenyl)cyclobutyl 2-methylene-4-((2-morpholinoethyl)amino)-4-oxobutanoate]	8.5	84	174					
85	18	2.6	2.9	668	3	31.4	14.4	C=C(CC(=O)NC1CCOCC1)C(=O)OC1(c2ccc(C(F)(F)F)cc2)CCC1 [Example 20, 1-(4-(trifluoromethyl)phenyl)cyclobutyl 2-methylene-4-oxo-4-((tetrahydro-2H-pyran-4-yl)amino)butanoate]		63	101					
27	44	11.1	12.6	449	3			C=C(CC(=O)NC)C(=O)OC1(c2ccc(C(F)(F)F)cc2)CCC1 [Example 9, 1-(4-(trifluoromethyl)phenyl)cyclobutyl 4-(methylamino)-2-methylene-4-oxobutanoate]								
59	25	4	3.1	138	9			C=C(CC(=O)NCCN(C)C)C(=O)OC1(c2ccc(C(F)(F)F)cc2)CCC1 [Example 12, 1-(4-(trifluoromethyl)phenyl)cyclobutyl 4-((2-(dimethylamino)ethyl)amino)-2-methylene-4-oxobutanoate]								
8	219	65.6	7.9	11	118			C=C(CC(=O)O)C(=O)OC1CCCc2cc(C(F)(F)F)ccc21 (single isomer, unassigned) [Example 7, 3-(((6-(trifluoromethyl)-1,2,3,4-tetrahydronaphthalen-1-yl)oxy)carbonyl)but-3-enoic acid]								
<3	> 460	54.8	5.4	<3	> 460			C=C(CC(=O)O)C(=O)O[C@@H](C)c1ccc(C(F)(F)F)cc1 [Example 1, (S)-3-((1-(4-(trifluoromethyl)phenyl)ethoxy)carbonyl)but-3-enoic acid]								
6	314	> 100	9.2	8	219			C=C(CC(=O)O)C(=O)OC1(c2ccc(C(F)(F)F)cc2)COC1 [Example 4, 3-(((3-(4-(trifluoromethyl)phenyl)oxetan-3-yl)oxy)carbonyl)but-3-enoic acid]								
98	12	13.8	60	>460	< 3			C=C(CC(=O)N(C)C)C(=O)OC1(c2ccc(C(F)(F)F)cc2)CCC1 [Example 10, 1-(4-(trifluoromethyl)phenyl)cyclobutyl 4-(dimethylamino)-2-methylene-4-oxobutanoate]								
		> 100	> 100					C=C(CC(=O)OC)C(=O)OC [dimethyl itaconate, reference compound]								
		12.4	15.3					C=C(CC(=O)NC(CO)C(N)=O)C(=O)OC1(c2ccc(C(F)(F)F)cc2)CCC1 (stereo not drawn) [Example 17, 1-(4-(trifluoromethyl)phenyl)cyclobutyl 4-((1-amino-3-hydroxy-1-oxopropan-2-yl)amino)-2-methylene-4-oxobutanoate]								
114	11	5.3	5.9	>460	< 3			C=C(CC(=O)NCc1nccn1C)C(=O)OC1(c2ccc(C(F)(F)F)cc2)CCC1 [Example 16, 1-(4-(trifluoromethyl)phenyl)cyclobutyl 4-(((1-methyl-1H-imidazol-2-yl)methyl)amino)-2-methylene-4-oxobutanoate]								
								C=C(CC(=O)O)C(=O)OC [1-monomethyl itaconate, reference compound]	> 100					> 100	30.1	44

Compound	CIint ([1]; Human hepatocytes) [μL min^−1 10^−6 cells]	half-life at 10 μM [1] [min]	IC50 (IL-6; Homo sapiens) [µM]	IC50 (IL-1β; [3]) [µM]	CIint ([2]; Mouse hepatocytes) [μL min^−1 10^−6 cells]	half-life at 10 μM [2] [min]	EC50 (NRF2; Homo sapiens, +GSH) [µM]	EC50 (NRF2; Homo sapiens, −GSH) [µM]	IC50 (IL-1β; differentiated THP-1 cells) [µM]	Emax (NRF2; [4]) [%]	Emax (NRF2; [5]) [%]	T½ ([1]; Human hepatocytes) [min]	T½ ([2]; Mouse hepatocytes) [min]	IC50 (IL-6) [µM]	EC50 (NRF2; −GSH) [µM]	NRF2 activation Emax, −GSH (NRF2; −GSH, normalised to dimethyl fumarate high control) [%]
C=C(CC(=O)O)C(=O)OC1(c2ccc(C(F)(F)F)cn2)CCC1 [Example 5, 3-((1-(5-(trifluoromethyl)pyridin-2-yl)cyclobutoxy)carbonyl)but-3-enoic acid]	<3	> 460	> 31.6	9	<3	> 460										
C=C(CC(=O)OCCCCCCCC)C(=O)O [4-octyl itaconate, reference compound]	401				351							4	4			
C=C(CC(=O)O)C(=O)OC1(c2ccc(C(F)(F)F)s2)CCC1 [Example 6, 3-((1-(5-(trifluoromethyl)thiophen-2-yl)cyclobutoxy)carbonyl)but-3-enoic acid]	13	143	> 100	9.5	<3	> 460										
C=C(CC(=O)O)C(=O)OC1(c2ccc(C(F)(F)F)c(F)c2)CCC1 [Example 3, 3-((1-(3-fluoro-4-(trifluoromethyl)phenyl)cyclobutoxy)carbonyl)but-3-enoic acid]	<3	> 460	53.7	4.8	<3	> 460										
